Measured values as given in patent publication US11357748B2, “Methods for treating mendelian disorders of the epigenetic machinery” (THE JOHNS HOPKINS UNIVERSITY, priority 2014, dated 2022).
Entries after “also recorded” stand apart in the source; their conditions may differ.

Columns and labels:
[1] = system: H3K4me3 in the dentate gyrus GCL; assay: Immunofluorescence of H3K4me3 in the dentate gyrus GCL after oral AR-42; format: in vivo, mouse; details: 25 mg/kg/day oral, two weeks, from 20 weeks of age; vs untreated; FIG. 24A, 24B
Source text: Kmt2d^+/βGeo mice, also named Mll2Gt^(RRt024) Byg, were acquired from Bay Genomics (University of California). All experimental mice were on a mixed C57BL/6J and 129/SvEv background. Expected Mendelian ratios were observed when heterozygous animals were bred to wild-type. In heterozygous crosses, however, there was uniform embryonic lethality of homozygotes by ED 12, the earliest developmental stage assayed. For treatment with AR-42, mice were orally gavaged daily with drug (Selleck Chemicals, Houston, Tex.) solubilized in vehicle (0.5% methylcellulose, 0.1% Tween-80, water) or with vehicle alone. Drug delivery information was kindly provided by Drs. […] For quantification of DCX positive cells, doses of 0, 5, 10 and 25 mg/kg/day were used. […] Maxillary protrusion was evaluated by ten investigators blinded to genotype and they were asked to rate maxillary protrusion on radiographs as either large (2) or small (1). […]
Z-stack images of slides were taken at either 10× using Zeiss Axiovert 200 with 510-Meta confocal module (Carl Zeiss, Jena, GER) or 25× using Zeiss AxioExaminer with 710NLO-Meta multiphoton (Carl Zeiss, Jena, GER). From 10× pictures, the GCL was highlighted and fluorescent intensities for both DAPI and H3K4me3 were measured at the midpoint of the entire z-stack (Zen software, Carl Zeiss, Jena, GER) with the value for Kmt2d^+/+ animals set equal to one. […]

[2] = system: DCX positive cells in the GCL (neurogenesis); assay: Doublecortin (DCX) expression in the GCL (neurogenesis) after oral AR-42; format: in vivo, mouse
Source text: Kmt2d^+/βGeo mice, also named Mll2Gt^(RRt024) Byg, were acquired from Bay Genomics (University of California). All experimental mice were on a mixed C57BL/6J and 129/SvEv background. Expected Mendelian ratios were observed when heterozygous animals were bred to wild-type. In heterozygous crosses, however, there was uniform embryonic lethality of homozygotes by ED 12, the earliest developmental stage assayed. For treatment with AR-42, mice were orally gavaged daily with drug (Selleck Chemicals, Houston, Tex.) solubilized in vehicle (0.5% methylcellulose, 0.1% Tween-80, water) or with vehicle alone. Drug delivery information was kindly provided by Drs. Chen and Kulp from Ohio State University (Huang et al. (2011) Mol. Pharmacol. 79:197-20619). Drug was administered for 14 days and mice were sacrificed on day 15. Morris water maze testing was initiated at day 7 and a dose of 10 mg/kg/day was used for these studies. For quantification of DCX positive cells, doses of 0, 5, 10 and 25 mg/kg/day were used. Genotyping was performed using primers B-GeoF-([…]; SEQ ID NO: 1) and B-GeoR-([…]; SEQ ID NO: 2) that are specific for the targeted allele and TcrdF-([…]; SEQ ID NO: 3) and TcrdR-([…]; SEQ ID NO: 4) that control for sufficient DNA concentration. Real-time PCR using the same primers allows discrimination between the heterozygous and homozygous state for the targeted allele. Maxillary protrusion was evaluated by ten investigators blinded to genotype and they were asked to rate maxillary protrusion on radiographs as either large (2) or small (1). […] All experiments were performed using mouse protocols approved by the Animal Care and Use Committee of Johns Hopkins University School of Medicine. The mouse protocols used for this study are in accordance with the guidelines used by the NIH for mouse care and handling.
Every 6th brain section was selected and then blocked with 5% Bovine Serum Albumin (BSA) at room temperature followed by incubation with primary antibodies overnight at 4° C. Secondary antibodies were then applied for 1 hour at room temperature, after which sections were mounted onto microscope slides with Vectamount with DAPI (Vector Laboratories, Burlingame, Calif.). Primary antibodies included Doublecortin (DCX) (SC-8066, Santa Cruz Biotechnology, Dallas, Tex., 1:200 goat), trimethylated H3K4 (9727L, Cell Signaling Technology, Beverly, Mass., 1:500 rabbit), and Kmt2d H-300 (SC-292359, Santa Cruz Biotechnology, Dallas, Tex., 1:500 rabbit). Non-specific binding was not observed when sections were sequentially exposed to serum (or IgG when appropriate) from the same species as the primary antibody for each experiment (i.e. rabbit for KMT2D and H3K4me3 and goat for doublecortin), followed by the secondary antibody used for KMT2D and H3K4me3 (anti-rabbit) or doublecortin (anti-goat, FIG. 29).
The area of both the GCL and DCX+ cells was measured using the NS elements 2.0 software (Nikon, Tokyo, JPN). Normalized DCX area was calculated by measuring the DCX+ area of the GCL and setting the baseline (Kmt2d^+/+) fraction to 1. A Student t-test with significance value set at P<0.05 was used for comparison of DCX+ area referenced to GCL area between genotypes and treatment arms.

CC(C)[C@H](C(=O)Nc1ccc(C(=O)NO)cc1)c1ccccc1 [AR-42, (S)—N-hydroxy-4-(3-methyl-2-phenylbutanamido)benzamide]
H3K4me3 in the GCL [1]: increased H3K4 trimethylation | DCX expression in the GCL ([2]; 10 mg/kg/day, older (5-6 months) Kmt2d+/βGeo mice, FIG. 24D): improved | difference in normalized DCX expression between mutant and wild-type animals ([2]; 10 mg/kg/day, one to two month old mice): no difference between mutant and wild-type animals | DCX expression in the GCL ([2]; 25 mg/kg/day, Kmt2d+/+ animals, FIG. 24C): reduced DCX expression | DCX expression in the GCL ([2]; 25 mg/kg/day, Kmt2d+/βGeo mice, FIG. 24C): did not improve DCX expression | DCX expression in the GCL ([2]; 25 mg/kg/day, young (1-2 month) and old (5-6 month) Kmt2d+/+ and Kmt2d+/βGeo mice): decreased DCX expression | DCX expression in the GCL ([2]; 5 and 10 mg/kg/day, Kmt2d+/+ (preservation) or Kmt2d+/βGeo (restoration), both age groups): preservation or restoration of DCX expression | postnatal neurogenesis in the granule cell layer of the dentate gyrus (overall statement) ([2]; mouse model of KS, ages 1-2 months and 5-6 months): beneficial effect; also recorded: rescued postnatal neurogenesis | neurogenesis (normalized DCX expression) ([2]; one to two month old Kmt2d+/βGeo mice, 0-10 mg/kg/day, FIG. 25C, 25D): dose-dependent increase in neurogenesis
